Values of other authors, collected in patent publication US20100041622A1, “Compositions containing aminoalkanes and aminoalkane derivatives” (priority 2008, published 2010).

How the values were obtained:
[1] = tested on: vasoconstrictor activity (blood pressure of pithed animal subject); conditions: average epinephrine equivalent per 1 mg of sulfate derivative
[2] = hydrophilic-lipophilic balance value, known values
vasoconstrictor activity = conditions: see U.S. Pat. No. 2,350,318

Row | Molecule | Epinephrine equivalent (micrograms (μg)) of 1 mg of the sulfate salt of the aminoalkane [1] | also measured
1 | CCCCCC(O)C(C)N (centres unmarked) [2-amino-3-hydroxy-octane] | 0.122 µg | 
2 | CCCCCN [1-amino-pentane] | 0.210 µg | 
3 | CC(C)CCN [1-amino-3-methyl butane] | 0.238 µg | 
4 | CCCCCCCCN [1-amino-octane] | nil | 
5 | CC(C)CCC(C)C(C)N (centres unmarked) [2-amino-3,6-dimethylheptane] | 0.910 µg | 
6 | Phosphatidylcholine |  | HLB [2]: 7.6
7 | CCCCC(C)CC(C)N (centres unmarked) [2-amino-4-methyloctane] | 0.475 µg | 
8 | CCC(C)CCN (centres unmarked) [1-amino-3-methyl pentane] | 0.193 µg | 
9 | CC(C)CCCC(C)N (centres unmarked) [2-amino-6-methylheptane] | 2.620 µg | 
10 | CCCCC(N)CC (centres unmarked) [3-aminoheptane] | 0.149 µg | 
11 | CCCCCCCN [1-amino-heptane] | 0.276 µg | 
12 | CCCCC(C)N (centres unmarked) [2-aminohexane] | 0.901 µg | 
13 | CCCC(C)C(C)N (centres unmarked) [2-amino-3-methylhexane] | 0.858 µg | 
14 | PEG-100 Stearate |  | HLB [2]: 18.8
15 | CCC(CC)CCC(C)N (centres unmarked) [2-amino-5-ethylheptane] | 0.358 µg | 
16 | CCCCCCC(C)N (centres unmarked) [2-amino-octane] | 0.510 µg | 
17 | CCCC(N)CCC [4-aminoheptane] | 0.048 µg | 
18 | CCCC(C)CC(C)N (centres unmarked) [2-amino-4-methylheptane] | 0.786 µg | 
19 | CCC(C)CC(C)N (centres unmarked) [2-amino-4-methylhexane] | 3.520 µg | vasoconstrictor activity compared to ephedrine or amphetamine (vasoconstrictor activity): greater vasoconstrictor activity
20 | CC(C)CC(N)CC(C)C [4-amino-2,6-dimethylheptane] | nil | 
21 | CC(C)CC(C)CC(C)N (centres unmarked) [2-amino-4,6-dimethylheptane] | 0.193 µg | 
22 | CC(C)CCCN [1-amino-4-methyl pentane] | 0.530 µg | 
23 | CC(N)CC(C)CC(C)(C)C (centres unmarked) [2-amino-4,6,6-trimethylheptane] | nil | 

Row | Molecule | Epinephrine equivalent (micrograms (μg)) of 1 mg of the sulfate salt of the aminoalkane [1] | also measured
24 | PEG-4 lauryl ether |  | HLB [2]: 9.7
25 | Sorbitan monostearate |  | HLB [2]: 4.7
26 | CC(C)CC(C)N (centres unmarked) [2-amino-4-methylpentane] | 0.840 µg | 
27 | CCC(N)CCC(C)C (centres unmarked) [3-amino-6-methylheptane] | nil | 
28 | CC(C)CC(C)CCN (centres unmarked) [1-amino-3,5-dimethylhexane] | 0.660 µg | 
29 | CCCC(C)CCN (centres unmarked) [1-amino-3-methylhexane] | 0.108 µg | 
30 | CCCCCCN [1-amino-hexane] | 0.766 µg | 
31 | CCCCCCC(C)CC(C)N (centres unmarked) [2-amino-4-methyldecane] | 0.242 µg | 
32 | C=C(C)CCC(C)N (centres unmarked) [2-amino-5-methylhexene-5] | 0.504 µg | 
33 | CCCCC(C)CCN (centres unmarked) [1-amino-3-methylheptane] | 1.230 µg | 
34 | CCCCC(C)C(C)N (centres unmarked) [2-amino-3-methylheptane] | 0.530 µg | 
35 | CC(C)C(C)CCN (centres unmarked) [1-amino-3,4-dimethylpentane] | 1.720 µg | 
36 | CCCCCC(N)CC (centres unmarked) [3-amino-octane] | 0.142 µg | 
37 | Sorbitan Palmitate |  | HLB [2]: 6.7
38 | CCCCCC(C)N (centres unmarked) [2-aminoheptane] | 3.100 µg | 
39 | CC(N)CC(C)(C)C (centres unmarked) [2-amino-4,4-dimethylpentane] | 0.083 µg | 
40 | C=CCCC(C)N (centres unmarked) [2-amino-hexene-5] | 0.193 µg | 
41 | CCCC(C)N (centres unmarked) [2-amino-pentane] | 0.395 µg | 
42 | CC(C)CCC(C)N (centres unmarked) [2-amino-5-methylhexane] | 1.560 µg | 
43 | CCCCCCCCCCCCCCCCCC(=O)OCC(O)CO (centres unmarked) [Glyceryl Stearate] |  | HLB [2]: 3.5
44 | Nonoxynol-9 |  | HLB [2]: 12.9
45 | CC(C)=CCCC(C)N (centres unmarked) [2-amino-6-methylheptene-5] | 0.391 µg | 
46 | CCC(C)CCC(C)N (centres unmarked) [2-amino-5-methylheptane] | 0.980 µg | 
